In patent publication US8114877B2, “Organic compounds” (Novartis AG, priority 2005, dated 2012):
pKi: −log10 of the molar value. Structures can show the parent of a compound that is named as a salt.

Target: adenosine A2A receptor (Homo sapiens, UniProt P29274)
Experiment: adenosine A2A receptor agonist assay, method of Murphree et al, Molecular Pharmacology 61, 455-462 (2002)
Format: binding
Settings: method of L. J. Murphree et al
From the text: Compounds of formula I and their pharmaceutically acceptable salts are useful as pharmaceuticals. In particular, they activate the adenosine A2A receptor, i.e. they act as A2A receptor agonists.

Chain of adenosine A2A receptor (P29274 whole entry): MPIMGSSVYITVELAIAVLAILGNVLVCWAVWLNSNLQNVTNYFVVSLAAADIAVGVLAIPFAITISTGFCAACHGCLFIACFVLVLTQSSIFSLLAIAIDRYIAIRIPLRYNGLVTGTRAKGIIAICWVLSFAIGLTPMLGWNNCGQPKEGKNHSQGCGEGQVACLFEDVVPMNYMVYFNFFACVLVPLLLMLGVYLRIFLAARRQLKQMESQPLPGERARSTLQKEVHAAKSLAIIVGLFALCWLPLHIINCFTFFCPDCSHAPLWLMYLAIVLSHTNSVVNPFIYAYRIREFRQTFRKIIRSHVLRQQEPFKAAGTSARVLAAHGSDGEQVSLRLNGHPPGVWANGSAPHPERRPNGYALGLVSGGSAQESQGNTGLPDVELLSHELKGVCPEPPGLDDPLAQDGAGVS

pKi | Compound
7.37 | Cc1nnn([C@H]2C[C@@H](n3cnc4c(NCC(c5ccccc5)c5ccccc5)nc(N[C@@H]5CCNC5)nc43)[C@H](O)[C@@H]2O)n1 [Example 7, (1R,2S,3R,5S)-3-[6-(2,2-Diphenyl-ethylamino)-2-((R)-pyrrolidin-3-ylamino)-purin-9-yl]-5-(5-methyl-tetrazol-2-yl)-cyclopentane-1,2-diol trifluoroacetate]
6.57 | NC1CCC(Nc2nc(NCC(c3ccccc3)c3ccccc3)c3ncn(C4CC(n5cccn5)C(O)C4O)c3n2)CC1 [Example 12, (1R,2S,3R,1S)-3-[2-(4-Amino-cyclohexylamino)-6-(2,2-diphenyl-ethylamino)-purin-9-yl]-5-pyrazol-1-yl-cyclopentane-1,2-diol]
